# In publication PMC4946153 (Cardiovascular Diabetology, 2016):
# Like-named read-outs stand apart in the source and are kept apart here.
# How the values were obtained:
# [1] = test system: H9c2-E2 cells (H9c2 overexpressing the human insulin receptor); assay: Caspase 3/7 activity assay in H9c2-E2 cells; type: cell-based, rat; conditions: for prevention of H2O2-induced caspase 3/7 activation (in words): 100 nM + 800 µM H2O2, 2 h
# Procedure: (§1) The cardiac mouse cell line HL-1, a cell line derived from the AT-1 mouse atrial cardiomyocyte tumour lineage, was kindly provided by Dr. W.C. Claycomb (Louisiana State University, New Orleans, LA, USA). HL-1 cells were cultivated in Claycomb medium containing 10 % fetal calf serum (FCS), 100 µM norepinephrine and 4 mM L-glutamine (all from Sigma-Aldrich, Munich, Germany) on gelatine/fibronectin coated plates. H9c2 cells (ATCC CRL-1446), stably transfected with the human IR in our laboratory (H9c2-E2) were cultivated in DMEM, low glucose containing 10 % FCS, 1 % non–essential amino acids and 600 µg/ml G418 (all from Invitrogen, Carlsbad, CA, USA). Commercially available iPS-derived human cardiomyocytes (Cor.4U®) (Axiogenesis, Cologne, Germany) were cultured in Cor.4U® Complete Medium containing 10 % FCS on fibronectin–coated 96-well E-Plate (Acea Biosciences, San Diego, CA, USA). The medium was changed twice daily. All cells were incubated at 37 °C with 5 % CO2 in a humidified incubator.
# Caspase 3/7 activity was then measured by the caspase-Glo® 3/7 assay system (Promega, Madison, Wisconsin, USA) as described in the manual. After 2 h incubation period caspase 3/7 activity was analysed by measuring the luminescence in an Infinite 200 plate reader (Tecan, Männedorf, Switzerland).
# [2] = test system: adult rat ventricular cardiomyocytes (ARVM); assay: Contractility of paced adult rat ventricular cardiomyocytes; type: cell-based; conditions: 100 nM, 5 min pre-treatment, ARVM paced 1 Hz, 15 V, 0.5 ms, 37 °C; vs. control; n = 4
# Procedure: Adult rat ventricular cardiomyocytes (ARVM) were isolated from wild-type Lewis rats (Lew/Crl) as previously described. […] Subsequently, ARVM were cultivated over-night in DMEM/F12 containing 33 µM biotin and 17 µM pantothenate (Invitrogen, Carlsbad, CA, USA). […] Furthermore, untreated ARVM or ARVM treated with 10 nM isoproterenol (Sigma-Aldrich, Munich, Germany) were immediately measured. ARVM were paced with bipolar pulses in a contractility and fluorescence system (IonOptix, Milton, MA, USA) at 15 V, 1 Hz, 0.5 ms, at 37 °C for up to 10 min and 10–14 contractions of at least 10 rod–shaped ARVM per condition were recorded. Sarcomeric shortening, shortening rate and re-lengthening rate were calculated using the IonWizard software (IonOptix, Milton, MA, USA). […] Afterwards, ARVM were treated as described above. […] Microscopic pictures were taken randomly with at least 10 pictures per condition. As a positive control 200 µM H2O2 was utilised. For each condition at least 400 cells were counted per experiment.
# [3] = test system: Cor.4U human iPSC-derived cardiomyocytes; assay: Beating-rate by impedance measurement in human Cor.4U cells; type: cell-based; conditions: 500 nM; for time to maximum beating-rate / beating-rate, area under the curve for 6 h: n = 4; for beating-rate, area under the curve for 6 h: vs. basal
# Procedure: as §1
# Cor.4U® cardiomyocytes were seeded at a density of 30,000 cells per well. From day 3 on the cells were cultured in Iscove’s Basal Medium containing 1 % GlutaMAX supplement (both Life Technologies, Carlsbad, CA, USA) and 2 µg/ml Ciprobay (Bayer, Leverkusen, Germany). […] Impedance of each well was measured with the RTCA Cardio xCELLigence Analyser (Acea Biosciences, San Diego, CA, USA) during the whole experiment. Beating-rate and cell index were analysed by RTCA cardio software (Acea Biosciences, San Diego, CA, USA).
# [4] = test system: insulin receptor (membrane embedded, M-IR; CHO-cells overexpressing the IR); assay: Competition binding, membrane embedded IR (M-IR)
# Procedure: Briefly, CHO-cells overexpressing the IR were collected and re-suspended in ice-cold 2.25 STM buffer (2.25 M sucrose, 5 mM Tris–HCl pH 7.4, 5 mM MgCl2, complete protease inhibitor) and disrupted using a Dounce homogenizer followed by sonication. The homogenate was overlaid with 0.8 STM buffer (0.8 M sucrose, 5 mM Tris–HCl pH 7.4, 5 mM MgCl2, complete protease inhibitor) and ultra-centrifuged for 90 min at 100,000g. Plasma membranes at the interface were collected and washed twice with phosphate buffered saline (PBS). The final pellet was re-suspended in dilution buffer (50 mM Tric-HCl pH 7.4, 5 mM MgCl2, complete protease inhibitor) and again homogenised with a Dounce homogenizer. Competition binding experiments were performed in a binding buffer (50 mM Tris–HCl, 150 mM NaCl, 0.1 % BSA, complete protease inhibitor, adjusted to pH 7.8) in 96-well microplates. In each well 2 µg isolated membrane were incubated with 0.25 mg wheat germ agglutinin polyvinyltoluene polyethylenimine scintillation proximity assay (SPA) beads. […] The radioactivity was measured at equilibrium in a microplate scintillation counter (Wallac Microbeta, Freiburg, Germany).
# (§2) Results are expressed as mean values ± SEM of at least three independent experiments. For statistical analysis Graphpad Prism v5.00 (Graphpad Software, San Diego, CA, USA) was used. One-way ANOVA was performed to determine significance between conditions, with level of significance chosen at p < 0.05. In case of IC50 determinations for binding, a non-parametric Kruskal–Wallis testing was performed, again with level of significance chosen at p < 0.05.
# [5] = molecular target: insulin receptor (solubilised, S-IR); assay: Competition binding, solubilised IR (S-IR)
# Procedure: Binding on a freshly solubilised IR preparation (S-IR) was performed as previously described with some modifications. Aliquots of membranes were incubated at 4 °C for 30 min in a solubilisation buffer (20 mM HEPES–NaOH, 100 mM NaCl, 10 mM MgSO4, 1 % (w/v) n-Dodecyl-ß-D-maltoside (Sigma-Aldrich, Munich, Germany), adjusted to pH 7.8 and Complete TM Protease Inhibitor cocktail). Thereafter, ultra-centrifugation was performed at 100,000g for 30 min and 4 °C to remove non–solubilised debris. Protein concentration in the supernatant was adjusted to 0.15 mg/ml with binding buffer (100 mM HEPES–NaOH, 100 mM NaCl, 10 mM MgSO4, 0.025 % (v/v) Tween-20, adjusted to pH 7.8 and complete TM protease inhibitor cocktail). To streptavidin SPA beads (5 mg in […] binding buffer), 50 µl of an anti-IR alpha-antibody 83-7 (Abcam, Cambridge, UK) was added. After incubation for 30 min, SPA beads were once washed and finally re-suspended in 500 µl binding buffer. A solution of solubilised receptor (1 ml, 0.15 mg/ml) was added and incubated for further 60 min, before washing and resuspension in 1.5 ml.
# as §2
# [6] = test system: cardiovascular outcome in patients; conditions: DEVOTE interim analysis; ref [16], [17]; cited from earlier work
# Text: (§3) So far, finalised clinical data is only available for IGla, whereas for IDeg the investigation is still ongoing.
# [7] = test system: Akt(Thr308) phosphorylation in HL-1 cells; assay: Akt(Thr308) phosphorylation in HL-1 cells, Western blot; type: cell-based, mouse; conditions: n = 3
# Procedure: as §1
# HL-1 cells = assay: 2-deoxy-D-glucose uptake in HL-1 cardiomyocytes; type: cell-based, mouse; conditions: 200 nM, 60 min
# Procedure: as §1
# HL-1 cells were seeded at a density of 400,000 cells per well in a 12-well plate. […] Incorporated glucose was measured by scintillation counting of the cell lysates in a liquid scintillation counter (Beckman Coulter, Pasadena, CA, USA). Values were corrected for non-specific uptake as measured by incubation with L-[^14C]glucose (PerkinElmer, Waltham, MA, USA).
# [8] = test system: Akt(Ser473) phosphorylation in HL-1 cells; assay: Akt(Ser473) phosphorylation in HL-1 cells, Western blot; type: cell-based, mouse; conditions: for Akt(Ser473) phosphorylation level: vs. Ins and other analogues
# Procedure: as §1
# [9] = test system: cardiovascular effects in patients; conditions: ORIGIN trial, ref [15]; cited from earlier work
# Text: as §3
# [10] = 200 nM, 60 min, HL-1, normalised to tubulin, n = 4-5
compound,measurement,setting,value
"OO [H2O2, reference compound]",induction of caspase 3/7 activity,"[1]; 800 µM H2O2, 2 h, H9c2-E2, vs. basal, n = 5-6",4.8 fold
same,induction of caspase 3/7 activity (in words),"[1]; H2O2 challenge, H9c2-E2",fivefold increase
insulin,increase in departure velocity (shortening rate),[2],~ twofold
same,increase in return velocity (re-lengthening rate),[2],~ threefold
same,increase in sarcomeric shortening,[2],~ 2.5 fold
same,time to maximum beating-rate,[3],10 min
same,"beating-rate, area under the curve for 6 h",[3],significant increase
same,decrease of caspase 3/7 activity compared to H2O2 treatment alone,"[1]; 100 nM insulin + 800 µM H2O2, 2 h, H9c2-E2, n = 5-6",up to 70.3%
insulin degludec [IDeg],IR affinity (in words),[4],very low binding affinities
same,IC50,"[4]; 2 µg isolated membrane, WGA-PVT-PEI SPA beads, 100 pM [125I]-human Ins, pH 7.8, 12 h at 23 °C, mean ± SEM, at least four independent experiments in quadruplicates, read-out: IR affinity IC50",19.6 ± 1.1 nM
same,IR affinity (in words),[4]; listed as Insulin degludec,significant lower IR affinity
same,IC50 fold higher compared to Ins,[4]; ratio of IC50 vs. Ins,23.6 fold
same,binding affinity compared to Ins,[4]; relative to Ins,~ 4%
same,IC50,"[5]; anti-IR antibody 83-7 SPA, 100 pM [125I]-insulin, pH 7.8, 12 h at 23 °C, mean ± SEM, at least six times on different days, quadruplicates, read-out: IR affinity IC50",3.12 ± 0.42 nM
same,IC50 fold higher compared to Ins,[5]; ratio of IC50 vs. Ins,5.4 fold
same,binding affinity relative to human insulin,[5]; this paper,~ 18.6%
same,major adverse cardiovascular outcome vs IGla,[6],non-inferiority to IGla
same,"Akt(Thr308) phosphorylation, kinetic","[7]; 200 nM, 5, 10 and 60 min, HL-1, same kinetic as for Akt(Ser473)",The same kinetic was observed
same,Akt(Thr308) phosphorylation,"[7]; 200 nM, 5- and 10-min incubation, HL-1, compared to insulin, insulin glargine and M1",lower
same,"glucose uptake, comparison between insulins",HL-1 cells,no difference
same,increase in departure velocity (shortening rate),[2],~ twofold
same,increase in return velocity (re-lengthening rate),[2],~ threefold
same,increase in sarcomeric shortening,[2],~ 2.5 fold
same,Akt(Ser473) phosphorylation level,"[8]; 200 nM, 5 min, HL-1, normalised to tubulin, n = 4-5",significantly lower
same,Akt(Ser473) phosphorylation level,"[8]; 200 nM, 10 min, HL-1, normalised to tubulin, n = 4-5",significantly lower
same,Akt(Ser473) phosphorylation level compared to IGla,[8]; [10],still significantly lower
same,Akt(Ser473) phosphorylation level compared to Ins and IGlaM1,[8]; [10],similar
same,Akt(Ser473) phosphorylation,"[8]; HL-1, 5- and 10-min incubation, compared to insulin, insulin glargine and M1",lower
same,onset of action on beating-rate,[3],slower onset of action
same,time to maximum beating-rate,[3],20 min
same,"beating-rate, area under the curve for 6 h",[3],significant increase
same,prevention of H2O2-induced caspase 3/7 activation (in words),[1]; H9c2-E2,same potency to prevent caspase 3/7 activation as Ins
insulin glargine [IGla],cardiovascular effects vs standard care treatment,[9],non-inferiority
same,"glucose uptake, comparison between insulins",HL-1 cells,no difference
same,increase in departure velocity (shortening rate),[2],~ twofold
same,increase in return velocity (re-lengthening rate),[2],~ threefold
same,increase in sarcomeric shortening,[2],~ 2.5 fold
same,time to maximum beating-rate,[3],10 min
same,"beating-rate, area under the curve for 6 h",[3],significant increase
same,prevention of H2O2-induced caspase 3/7 activation (in words),[1]; H9c2-E2,same potency to prevent caspase 3/7 activation as Ins
